Assay results from patent US20040110732A1, “Pharmaceutical composition for transdermal or transmucosal administration comprising at least one progestin and/or at least one oestrogen, process for preparing it and uses thereof” (BESINS INTERNATIONAL BELGIQUE, priority 2002, published 2004).

Assay: In vitro percutaneous absorption of 3H estradiol in Franz-type diffusion cells
Protocol: The in vitro percutaneous absorption was studied quantitatively on biopsies of dermatomed human ventral skin, placed in a 1.77 cm^2 Franz static diffusion cell, which allows the dermis to be placed in contact with a survival liquid into which the substance absorbed through the skin will be dosed. The survival liquid consists of a solution of 9 g/L sodium chloride supplemented with 15 g/L of serum albumin. The cells are placed under ambient atmosphere and thermostatically maintained at 37° C. 10 μl of preparation are applied to the entire surface of the epidermis circumscribed by the glass cylinder. During the experiment, samples of the survival liquid are taken at times 2 h, 4 h, 6 h, 8 h and 24 h. For each time, the survival liquid taken is replaced with fresh liquid.

C[C@]12CC[C@@H]3c4ccc(O)cc4CC[C@H]3[C@@H]1CC[C@@H]2O [estradiol, 17β-estradiol]
cumulative absorption at 24 hours of estradiol (control of the ethylglycolic acid test: aqueous-alcoholic estradiol 0.06% solution without hydroxy acid): 5.26%±1.26% | percutaneous absorption of estradiol (control of the glycolic acid test: aqueous-alcoholic estradiol 0.06% solution without hydroxy acid): 6.96%±2.95% | percutaneous absorption of estradiol at 24 hours (control of the lactic acid test: aqueous-alcoholic solution of estradiol 0.06%, 50% absolute alcohol, no hydroxy acid): 5.50%±1.76% | cumulative absorption at 24 hours of estradiol (ethylglycolic acid at 5%, estradiol 0.06%): 8.90%±1.29% | percutaneous absorption of estradiol (glycolic acid at 5% in aqueous-alcoholic solution containing 40% absolute ethanol, estradiol 0.06%): 17.73%±2.96% | flows between 8 and 24 hours (lactic acid at 5% in 50% ethanol solution, compared with the control): significantly increasing | percutaneous absorption of estradiol at 24 hours (lactic acid at 5% in aqueous-alcoholic solution containing 50% ethanol, estradiol 0.06%): 13.80%±6.78%
